In one data set the test system is rat. As to the kind of experiment: Acute toxicity (DL50) i.v. in rat. In kind it is in vivo. To be noted: dose causing death in 50% of the animals. The method in brief:
(§1)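 Rat acute toxicity given intravenously; DL50 is the dose in mg/kg body weight that kills 50% of treated animals.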

The subject of data set [1] is intestinal transit of the charcoal. As to the kind of experiment: Vegetable carbon (charcoal) intestinal transit test in vivo. Details: species or system rat. To be noted: i.v., rat, charcoal test, 2 hours. Summed up:
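Rats fasted 24 h received 0.3 ml oral charcoal/gum arabic suspension together with test substance (i.v., s.c. or oral). Killed at 2 h; animals scored positive when charcoal had not reached the first portion of the colon. ED50 derived from this test.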

Data set [2] relates to ileum of a cavy (BaCl2 spasm). Briefly: Antispastic activity in vitro, Magnus method, cavy ileum stimulated with BaCl2. In kind it is cell-based. To be noted: for Antisp. activity in vitro on the ileum of a cavy by Stim. BaCl2: ED50 pap./ED50 CR: ratio to papaverine = 1, Table 1, 37°. Summed up:
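Isolated guinea-pig ileum in oxygenated nutritive bath at 37°, compound added beforehand to block BaCl2-induced contraction (Magnus method). ED50 is the dose halving spastic contraction; values expressed as ratio to papaverine.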

Data set [3] concerns caudal artery of a rat (ergotamine tartrate contraction). As to the kind of experiment: Antispastic activity on caudal artery of rat stimulated with ergotamine tartrate. To be noted: ergotamine tartrate 350 μg/ml of perfusion liquid, 50% reduction of contraction. The data set is classed as cell-based. The method, then:
An in vitro evaluation of this activity was made upon the caudal artery of a rat, suspended, so that one can register the variation of internal pressure, and contracted with ergotamine tartrate put in to the arterial lumen of the said vessel with a dose of 350 μg/ml of perfusion liquid.
The spasm was antagonised with the compounds being tested. The evaluation was made with ED50, i.e., a concentration of the product in the perfusion liquid expressed as μg/ml able to reduce the contraction thus induced by 50%.
Antispastic activity of some of the claimed compounds upon the caudal artery of a rat stimulated with ergotamine tartrate: values are expressed in ED50 (see specification).

Data set [4] has as its system caudal artery of a rat (electric stimulation). Briefly: Antispastic activity on caudal artery of rat, electrically stimulated. The data set is classed as cell-based. To be noted: 50% reduction of response to electric stimulation. The method, then:
In another experiment the caudal artery of a rat was electrically stimulated and the pharmaceuticals were added to the bath. The activity was assessed at ED50, i.e., the quantity of pharmaceutical expressed in μg/ml of the perfusion liquid able to reduce by half the response of the electric stimulation compared with that of the checks.
Antispastic activity of some of the compounds claimed on the caudal artery of a rat, electrically stimulated: the values are expressed in ED50 (see Specification).

The nature of data set [5]: Acute toxicity (DL50) i.v. in rat. The data set is classed as in vivo. To be noted: in vivo, iv, dose causing death in 50% of the animals. Summed up:
as §1

The subject of data set [6] is cavy ileum (serotonine spasm). As to the kind of experiment: Antispastic activity in vitro on cavy ileum, spasmiser serotonine. In kind it is cell-based. To be noted: Table 2; ED50 ratio. The method, then: (§2) C. The method in vitro is that of Magnus, with the ileum of the cavy, and is in common use for all evaluations. It consists of extracting the ileum from the cavy and placing it in a receptacle which contains nutritive liquid, suitably oxygenated, and registering the movements of the organ which remains alive for several hours if maintained at a temperature of 37°. According to the traditional method followed by us, BaCl2 is put into the bath as a spasmisant: the reaction is a violent contraction of the organ. This contraction can be prevented by adding beforehand pharmaceuticals which inhibit spasms, and in this case our compounds.
(§3) The activities which have been described so far both in vitro and in vivo can be confirmed using different animals or different organs. These activities are further improved if, instead of BaCl2 other spasmisers are used, such as serotoninehistamine and oxytocine (see Table 2).
(§4) The values contained in the table are expressed as comparison between the
(§5) substance being studied, and they therefore express the activity of the
(§6) compounds compared with known, very active substances.

Data set [7] has as its system cavy ileum (histamine spasm). Briefly: Antispastic activity in vitro on cavy ileum, spasmiser histamine. In kind it is cell-based. To be noted: Table 2; ED50 ratio. As for the experimental part: as §2, §3, §4, §5, §6
Data set [8] deals with rat uterus (oxytocine spasm). Briefly: Antispastic activity in vitro on rat uterus, spasmiser oxytocine. The data set is classed as cell-based. To be noted: Table 2; ED50 ratio.
From the text: as §3, §4, §5, §6

For a further data set, the system named is urinary bladder of a rat. As to the kind of experiment: Urinary bladder movement of anaesthetised rat in vivo. To be noted: intravenous, anaesthetised rat; read-out: Urinary sac of rat in vivo ED50. The source says:
The in vivo evaluation was made upon the urinary bladder of a rat anaesthetised and placed in an environment heated to the animals body temperature whilst the bladder which is exposed is linked to a system which registers its movement. The pharmaceutilcals were given to the animals by intravenous means.

The subject of a further data set is rat's ureter. Briefly: Ureter of rat in vitro. In kind it is cell-based. To be noted: Rattus norvegicus; read-out: Ureter of rat in vitro ED50. The source says: The in vitro evaluation was made on a rat's ureter suspended in a bath of physiological liquid according to a method similar to the Magnus method already described.
A further data set relates to stomach and pylorus. Briefly: Perfusion outflow of stomach and pylorus (gastro-pyloric spasm by morphine). The data set is classed as in vivo. To be noted: i.v.; CR 605 5, CR 725 10, CR 603 12.5 mg/kg; morphine 250 μg.
Data set [9] relates to bile ducts (sphincter of Oddi). Briefly: Perfusion outflow of bile ducts (bile duct spasm by morphine). The data set is classed as in vivo. To be noted: i.v.; CR 605 5, CR 725 10, CR 603 12.5 mg/kg; morphine 250 μg.
From the text: (§7) The results shown in this table were obtained by perfusing with a physiological solution, the stomach and the bile ducts respectively and collecting the liquid emerging after the pylorus and the sphineter of Oddi.

SMILES strings stand for the structures. In brackets after ≈: the same amount, converted by molar mass.

From the text for stomach and pylorus: as §7

Take `CCCN(CCC)C(=O)C(Cc1ccc(OCCCN(C)C)cc1)NC(=O)c1ccccc1` (racemic) [CR 816, O-(3-dimethylamino-propyl)-N-benzoyl-DL-tyrosil-di-n-propylamide]: in the data set with rat, the “DL50 in a rat” value was found to be 16.0 mg/kg. The “Antisp. activity in transit test: ED50” value in [1] (120 min) was 5.5 mg/kg. Moreover, the “Antisp. activity in vitro on the ileum of a cavy by Stim. BaCl2: ED50 pap./ED50 CR” value in data set [2] was determined as 2.00. Also, the “ED50, caudal artery, ergotamine tartrate” value in data set [3] worked out at 12 µg/mL (≈ 26.5 µM). In addition, the “ED50, caudal artery, electrically stimulated” value in data set [4] came out at 7 µg/mL (≈ 15.4 µM).
In general, LD50 refers to the dose at which mortality reaches 50%. Read a high LD50 as lower toxicity. Usually ED50 stands for the dose that gives a 50% effect, or the effect in half of the subjects. In data set [5], `CCCN(CCC)C(=O)C(Cc1ccc(OCCN(C)C)cc1)NC(=O)OCc1ccccc1` [CR 603, O-(2-dimethylamino-ethyl)-N-carbobenzoxy-L-tyrosil-di-n-propylamide] showed an LD50 of 63 mg/kg. The ED50 in data set [1] (Rattus norvegicus, iv, 2 h, read-out: Antisp. activity in transit test: ED50) is 30.5 mg/kg; with urinary bladder of a rat, 6.9 mg/kg. In addition, in data set [2] (Table 2, ED50 of test substance papaverine / ED50 of compound), the “Antispastic activity in vitro, cavy ileum, BaCl2 (relative to papaverine = 1)” value is given as 2.4. The “Antisp. activity in vitro on the ileum of a cavy by Stim. BaCl2: ED50 pap./ED50 CR” value in data set [2] is 2.40. Besides, the “Antispastic activity in vitro, cavy ileum, serotonine (relative to methysergide = 1)” value in data set [6] was determined as 0.87. Also, in [7], the “Antispastic activity in vitro, cavy ileum, histamine (relative to prometazine = 1)” value is 0.09. The “Antispastic activity in vitro, rat uterus, oxytocine (relative to papaverine = 1)” value in data set [8] came out at 0.008. Moreover, the IC50 in the data set with rat's ureter came to 86 µg/mL (≈ 183 µM); in data set [3] (Rattus norvegicus, read-out: ED50, caudal artery, ergotamine tartrate), 105 µg/mL (≈ 224 µM); in data set [4] (Rattus norvegicus, read-out: ED50, caudal artery, electrically stimulated) it was 76 µg/mL (≈ 162 µM). For the same compound, in the data set with stomach and pylorus, the “Stomach and pylorus, outflow after the 1st hour” value turned out to be 157.0 mL. In the data set on stomach and pylorus, the “Stomach and pylorus, outflow after the 2nd hour” value was 160.8 mL. Moreover, in data set [9], the “Bile ducts, outflow after the 1st hour” value was 50.3 mL. Besides, the “Bile ducts, outflow after the 2nd hour” value in [9] was found to be 48.8 mL.

The values are drawn from patent US4004008A, “O-Tertiary amino-alkyl-N-benzoyl tyrosil amides” (priority 1974, dated 1977).
